In patent EP4603105A1, “PHARMACEUTICAL COMPOSITION CONTAINING CYCLIC COMPOUND HAVING SELECTIVE KRAS INHIBITORY EFFECT AGAINST HRAS AND NRAS” (CHUGAI SEIYAKU KABUSHIKI KAISHA, priority 2022, dated 2024):
Like-named read-outs stand apart in the source and are kept apart here.

Legend:
[1] = molecular target: GDP-bound NRAS wild-type protein (Homo sapiens, UniProt P01111); test: Binding to NRAS by surface plasmon resonance (SPR), KD and KD ratio to KRAS
Procedure, shortened: (§1)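 Running buffer contained 10 µM GDP and 10 mM MgCl2 to keep RAS in the GDP state, with 4% DMSO at pH 7.4. Compounds were flowed at 100 µL/min in 75 s steps of rising concentration over captured biotin-Avi RAS at 30°C. Sensorgrams were fitted 1:1 for KD.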

[2] = molecular target: GDP-bound KRAS wild-type protein (Homo sapiens, UniProt P01116); test: Binding to KRAS by surface plasmon resonance (SPR), dissociation constant KD
Sequence of GDP-bound KRAS wild-type protein (P01116 1-188 isoform P01116-2): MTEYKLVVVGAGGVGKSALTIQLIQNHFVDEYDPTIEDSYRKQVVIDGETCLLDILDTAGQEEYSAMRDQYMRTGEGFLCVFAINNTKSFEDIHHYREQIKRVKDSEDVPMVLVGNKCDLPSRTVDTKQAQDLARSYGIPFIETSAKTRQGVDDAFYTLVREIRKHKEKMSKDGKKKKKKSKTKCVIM
Procedure, shortened: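 GDP-loaded biotinylated Avi-tag RAS proteins (E. coli-expressed) captured on a Biotin CAPture chip at ~100–300 RU; single-cycle kinetics at 30°C, 100 µL/min, 75 s injections of rising compound concentrations. HBS pH 7.4 running buffer with 1 mM DTT, 10 mM MgCl2, 10 µM GDP, 4% DMSO. KD from 1:1 binding fit.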

[3] = molecular target: HRAS wild-type protein (Homo sapiens, UniProt P01112); test: Binding to HRAS by surface plasmon resonance (SPR), KD and KD ratio to KRAS
Sequence of HRAS wild-type protein (P01112 whole entry): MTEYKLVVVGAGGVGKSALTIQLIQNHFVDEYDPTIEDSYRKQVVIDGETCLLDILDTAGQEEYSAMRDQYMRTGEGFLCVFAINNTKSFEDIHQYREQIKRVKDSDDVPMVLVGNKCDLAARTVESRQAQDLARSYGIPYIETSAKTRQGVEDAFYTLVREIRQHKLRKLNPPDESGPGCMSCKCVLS
Procedure, shortened: as §1

[4] = tested on: human lung cancer strain NCI-H441; test: NCI-H441 cell proliferation inhibitory activity (CellTiter-Glo, 4 days); type: cell-based; details: read-out: NCl-H441 IC50
Procedure, shortened: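 Step one: dispense the test compound in serial DMSO dilutions. Step three: add the reagent and measure […].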

[5] = ratio of KD with respect to GDP-bound NRAS wild-type protein to KD with respect to KRAS
[6] = Single Cycle Kinetics, 1:1 binding model
[7] = ratio of KD with respect to HRAS wild-type protein to KD with respect to KRAS
[8] = 50% proliferation inhibitory concentration, four days
[9] = ratio of KD for GDP-bound NRAS wild-type protein to KD for KRAS
[10] = ratio of KD for HRAS wild-type protein to KD for KRAS

Sequence of GDP-bound NRAS wild-type protein (P01111 whole entry): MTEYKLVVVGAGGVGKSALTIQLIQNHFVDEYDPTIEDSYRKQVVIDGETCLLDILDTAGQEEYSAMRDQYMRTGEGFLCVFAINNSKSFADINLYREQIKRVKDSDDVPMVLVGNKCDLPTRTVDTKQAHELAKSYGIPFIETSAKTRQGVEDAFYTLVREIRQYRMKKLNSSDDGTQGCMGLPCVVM

SMILES: CCO[C@@H]1C[C@H]2C(=O)NC3(CCC3)C(=O)N(C)[C@@H](C(CC)CC)C(=O)N(C)[C@H](C(=O)N(C)C)CC(=O)N(C)[C@@H](CC3CC3)C(=O)N[C@@H]([C@@H](C)CC)C(=O)N(C)CC(=O)N(C)[C@H]3C/C=C\CCN(C3=O)[C@@H](CC3CCCCC3)C(=O)N(C)CC(=O)N[C@@H](CCc3cc(F)c(C(F)(F)F)c(F)c3)C(=O)N2C1 [PP1428]
- NRAS /KRAS [1, 5]: AA (a compound having 20 or more is denoted as AA)
- Kd [2, 6]: 0.87 nM
- HRAS /KRAS [3, 7]: A (a compound having 10 or more and less than 20 is denoted as A)
- IC50 [4, 8]: 38.8 nM

SMILES: CCCCCC[C@H]1C(=O)N[C@@H]([C@@H](C)CC)C(=O)N(C)CC(=O)N(C)[C@H]2C/C=C\CCN(C2=O)[C@@H](Cc2ccc(C(F)(F)F)cc2)C(=O)N(C)CC(=O)N[C@@H](CCc2ccc(Cl)c(Cl)c2)C(=O)N2C[C@H](OCC)C[C@H]2C(=O)NC2(CCC2)C(=O)N(C)[C@@H](C(CC)CC)C(=O)N(C)[C@H](C(=O)N(C)C)CC(=O)N1C [PP1218]
- NRAS /KRAS [1, 5]: AA (a compound having 20 or more is denoted as AA)
- Kd [2, 6]: 0.88 nM
- HRAS /KRAS [3, 7]: A (a compound having 10 or more and less than 20 is denoted as A)
- IC50 [4, 8]: 67.9 nM

SMILES: CCO[C@@H]1C[C@H]2C(=O)NC3(CCC3)C(=O)N(C)[C@@H](C(CC)CC)C(=O)N(C)[C@H](C(=O)N(C)C)CC(=O)N(C)[C@@H](CC3CCCC3)C(=O)N[C@@H]([C@@H](C)CC)C(=O)N(C)CC(=O)N(C)[C@H]3C/C=C\CCN(C3=O)[C@@H](CC3CCCCC3)C(=O)N(C)CC(=O)N[C@@H](CCc3cc(F)c(C(F)(F)F)c(F)c3)C(=O)N2C1 [PP1430]
- NRAS /KRAS [1, 5]: A (a compound having 10 or more and less than 20 is denoted as A)
- Kd [2, 6]: 0.85 nM
- HRAS /KRAS [3, 7]: A (a compound having 10 or more and less than 20 is denoted as A)
- IC50 [4, 8]: 70.4 nM

SMILES: CCOC[C@H]1C(=O)N[C@@H]([C@@H](C)CC)C(=O)N(C)CC(=O)N(C)[C@H]2C/C=C\CCN(C2=O)[C@@H](CC2CCC(F)(F)CC2)C(=O)N(C)CC(=O)N[C@@H](CCc2cc(F)c(C(F)(F)F)c(F)c2)C(=O)N2C[C@@H](C)C[C@H]2C(=O)NC2(CC(C)(C)C2)C(=O)N(C)[C@@H](C(CC)CC)C(=O)N(C)[C@H](C(=O)N(C)C)CC(=O)N1C [PP2462]
- NRAS /KRAS [1, 9]: A (a compound having 10 or more and less than 20 is denoted as A)
- Kd ([2]; 1:1 binding model): 1.6 nM
- HRAS /KRAS [3, 10]: A (a compound having 10 or more and less than 20 is denoted as A)
- IC50 ([4]; NCI-H441 cells, 4 days): 87.2 nM

SMILES: CCO[C@@H]1C[C@H]2C(=O)NC3(CCC3)C(=O)N(C)[C@@H](C(CC)CC)C(=O)N(C)[C@H](C(=O)N3CCCC3)CC(=O)N(C)[C@@H](COC)C(=O)N[C@@H]([C@@H](C)CC)C(=O)N(C)CC(=O)N(C)[C@H]3C/C=C\CCN(C3=O)[C@@H](CC3CCCCC3)C(=O)N(C)CC(=O)N[C@@H](CCc3cc(F)c(C(F)(F)F)c(F)c3)C(=O)N2C1 [PP1438]
- NRAS /KRAS [1, 5]: AA (a compound having 20 or more is denoted as AA)
- Kd [2, 6]: 0.55 nM
- HRAS /KRAS [3, 7]: A (a compound having 10 or more and less than 20 is denoted as A)
- IC50 [4, 8]: 89.4 nM

SMILES: CCC[C@H]1C(=O)N[C@@H]([C@@H](C)CC)C(=O)N(C)CC(=O)N(C)[C@H]2C/C=C\CCN(C2=O)[C@@H](Cc2ccc(C)cc2)C(=O)N(C)CC(=O)N[C@@H](CCc2cc(F)c(C(F)(F)F)c(F)c2)C(=O)N2CC3(CC3)C[C@H]2C(=O)NC2(CCC2)C(=O)N(C)[C@@H](C(CC)CC)C(=O)N(C)[C@H](C(=O)N(C)C)CC(=O)N1C [PP3420]
- NRAS /KRAS [1, 9]: AA (a compound having 20 or more is denoted as AA)
- Kd ([2]; Single Cycle Kinetics): 0.42 nM
- HRAS /KRAS [3, 10]: A (a compound having 10 or more and less than 20 is denoted as A)
- IC50 ([4]; NCI-H441 cells, 4 days): 13.2 nM

SMILES: CCO[C@@H]1C[C@H]2C(=O)NC3(CC(C)(C)C3)C(=O)N(C)[C@@H](C3CCCC3)C(=O)N(C)[C@H](C(=O)N(C)C)CC(=O)N(C)[C@@H]([C@H](C)OC)C(=O)N[C@@H]([C@@H](C)CC)C(=O)N(C)CC(=O)N(C)[C@H]3C/C=C\CCN(C3=O)[C@@H](Cc3ccc(C(F)(F)F)cc3)C(=O)N(C)CC(=O)N[C@@H](CCc3cc(F)c(C(F)(F)F)c(F)c3)C(=O)N2C1 [PP3169]
- NRAS /KRAS [1, 9]: A (a compound having 10 or more and less than 20 is denoted as A)
- Kd ([2]; Single Cycle Kinetics): 0.064 nM
- HRAS /KRAS [3, 10]: A (a compound having 10 or more and less than 20 is denoted as A)
- IC50 ([4]; NCI-H441 cells, 4 days): 7.9 nM

SMILES: CCCC[C@H]1C(=O)N[C@@H]([C@@H](C)CC)C(=O)N(C2CC2)CC(=O)N(C)[C@H]2C/C=C\CCN(C2=O)[C@@H](Cc2ccc(C(F)(F)F)cc2)C(=O)N(C)CC(=O)N[C@@H](CCc2ccc(C(F)(F)F)c(OC)c2)C(=O)N2C[C@H](OCC)C[C@H]2C(=O)OC2(CCC2)C(=O)N(C)[C@@H](C2CCCC2)C(=O)N(C)[C@H](C(=O)N(C)C)CC(=O)N1C [PP3366]
- NRAS /KRAS [1, 9]: A (a compound having 10 or more and less than 20 is denoted as A)
- Kd ([2]; Single Cycle Kinetics): 1.1 nM
- HRAS /KRAS [3, 10]: A (a compound having 10 or more and less than 20 is denoted as A)
- IC50 ([4]; NCI-H441 cells, 4 days): 34.3 nM

SMILES: C#CC[C@H]1C(=O)N[C@@H]([C@@H](C)CC)C(=O)N2CCC[C@H]2C(=O)N(C)[C@H]2C/C=C\CCN(C2=O)[C@@H](Cc2ccc(C)cc2)C(=O)N(C)CC(=O)N[C@@H](CCc2ccc(C(F)(F)F)c(Cl)c2)C(=O)N2C[C@H](OCC)C[C@H]2C(=O)N(C)C2(CCC2)C(=O)N(C)[C@@H](C2CCCC2)C(=O)N(C)[C@H](C(=O)N(C)C)CC(=O)N1C [PP3257]
- NRAS /KRAS [1, 9]: A (a compound having 10 or more and less than 20 is denoted as A)
- Kd ([2]; Single Cycle Kinetics): 0.1 nM
- HRAS /KRAS [3, 10]: B (a compound having 3 or more and less than 10 is denoted as B)
- IC50 ([4]; NCI-H441 cells, 4 days): 2.2 nM

SMILES: CCO[C@@H]1C[C@H]2C(=O)NC3(CC(C)(C)C3)C(=O)N(C)[C@@H](C3CCCC3)C(=O)N(C)[C@H](C(=O)N(C)CC)CC(=O)N(C)[C@@H]([C@H](C)OC)C(=O)N[C@@H]([C@@H](C)CC)C(=O)N(C3CC3)CC(=O)N(C)[C@H]3C/C=C\CCN(C3=O)[C@@H](Cc3ccc(C)cc3)C(=O)N(C)CC(=O)N[C@@H](CCc3ccc(C(F)(F)F)c(OC)c3)C(=O)N2C1 [PP3228]
- NRAS /KRAS [1, 9]: A (a compound having 10 or more and less than 20 is denoted as A)
- Kd ([2]; Single Cycle Kinetics): 0.81 nM
- HRAS /KRAS [3, 10]: A (a compound having 10 or more and less than 20 is denoted as A)
- IC50 ([4]; NCI-H441 cells, 4 days): 41.5 nM

SMILES: C#CC[C@H]1C(=O)N[C@@H]([C@@H](C)CC)C(=O)N2CCC[C@H]2C(=O)N(C)[C@H]2C/C=C\CCN(C2=O)[C@@H](Cc2ccc(C(F)(F)F)cc2)C(=O)N(C)CC(=O)N[C@@H](CCc2cc(F)c(C(F)(F)F)c(F)c2)C(=O)N2C[C@H](OCC)C[C@H]2C(=O)N(C)C2(CCC2)C(=O)N(C)[C@@H](C2CCCC2)C(=O)N(C)[C@H](C(=O)N(C)C)CC(=O)N1C [PP3253]
- NRAS /KRAS [1, 9]: A (a compound having 10 or more and less than 20 is denoted as A)
- Kd ([2]; Single Cycle Kinetics): 0.088 nM
- HRAS /KRAS [3, 10]: B (a compound having 3 or more and less than 10 is denoted as B)
- IC50 ([4]; NCI-H441 cells, 4 days): 2.9 nM

SMILES: CCC[C@H]1C(=O)N[C@@H]([C@@H](C)CC)C(=O)N2CCCC[C@H]2C(=O)N(C)[C@H]2C/C=C\CCN(C2=O)[C@@H](Cc2ccc(C(F)(F)F)cc2)C(=O)N(C)CC(=O)N[C@@H](CCc2cc(F)c(C(F)(F)F)c(F)c2)C(=O)N2C[C@H](OCC)C[C@H]2C(=O)N(C)C2(CCC2)C(=O)N(C)[C@@H](C2CCCC2)C(=O)N(C)[C@H](C(=O)N(C)C)CC(=O)N1C [PP3271]
- NRAS /KRAS [1, 9]: A (a compound having 10 or more and less than 20 is denoted as A)
- Kd ([2]; Single Cycle Kinetics): 0.82 nM
- HRAS /KRAS [3, 10]: B (a compound having 3 or more and less than 10 is denoted as B)
- IC50 ([4]; NCI-H441 cells, 4 days): 22.7 nM

SMILES: CCO[C@@H]1C[C@H]2C(=O)NC3(CCCC3)C(=O)N(C)[C@@H](C3CCCC3)C(=O)N(C)[C@H](C(=O)N(C)C)CC(=O)N(C)[C@@H]([C@@H](C)OC)C(=O)N[C@@H]([C@@H](C)CC)C(=O)N(C3CC3)CC(=O)N(C)[C@H]3C/C=C\CCN(C3=O)[C@@H](Cc3ccc(C)cc3)C(=O)N(C)CC(=O)N[C@@H](CCc3cc(F)c(C(F)(F)F)c(F)c3)C(=O)N2C1 [PP3482]
- NRAS /KRAS [1, 9]: A (a compound having 10 or more and less than 20 is denoted as A)
- Kd ([2]; Single Cycle Kinetics): 0.6 nM
- HRAS /KRAS [3, 10]: A (a compound having 10 or more and less than 20 is denoted as A)
- IC50 ([4]; NCI-H441 cells, 4 days): 38.6 nM

SMILES: CCC[C@H]1C(=O)N[C@@H]([C@@H](C)CC)C(=O)N(C)CC(=O)N(C)[C@H]2C/C=C\CCN(C2=O)[C@@H](Cc2ccc(C(F)(F)F)cc2)C(=O)N(C)CC(=O)N[C@@H](CCc2ccc(C(F)(F)F)c(Cl)c2)C(=O)N2CC3(CC3)C[C@H]2C(=O)N(C)C2(CCC2)C(=O)N(C)[C@@H]([C@@H](C)CC)C(=O)N(C)[C@H](C(=O)N(C)C)CC(=O)N1C [PP3299]
- NRAS /KRAS [1, 9]: A (a compound having 10 or more and less than 20 is denoted as A)
- Kd ([2]; Single Cycle Kinetics): 0.11 nM
- HRAS /KRAS [3, 10]: A (a compound having 10 or more and less than 20 is denoted as A)
- IC50 ([4]; NCI-H441 cells, 4 days): 8.1 nM
